# Patent publication US10905682B2, “Use of mitochondrial iron chelators for treatment of chronic obstructive pulmonary disease” (Cornell University, priority 2015, dated 2021)
# How the values were obtained:
# Assay type in all cases: in vivo, mouse
# [1] = tested on: lung mitochondrial non-heme iron; assay: Lung mitochondrial non-heme iron in CS-exposed mice; conditions: WT mice, CS 6 or 8 weeks, DFP after 4 weeks of CS, versus CS without DFP; FIG. 6e
# Description: In vivo CS exposures, chemical treatments and diet modifications. Age- and sex-matched mice, starting at 6-12 weeks of age, were selected at random and exposed to total body CS in a stainless steel chamber using a whole-body smoke exposure device (Model TE-10 Teague Enterprises) for 2 hours per day, 5 days per week for 4 weeks or 4-6 months. Age-matched male and female mice were used for all CS exposures. Mice were exposed to CS (mainstream and side stream smoke) from 100 3R4F cigarettes (University of Kentucky), which correlated to an average total particulate matter (TPM) of 150 mg/m^3. For animals subjected to cigarette smoke exposure, early death was used as an exclusion criterion. […]
# (§1) Mice exposed to CS for 4 weeks had modifications to their dietary iron as follows: Diet 1 (Control Diet) from Harlan Laboratories (TD.94045 AIN-93G), which contained 300-ppm iron. […] Animals were weighed weekly and the quantity of chow consumed was recorded compared to mice on a normal iron diet. […] Animals were checked daily and the quantity of water consumed compared to control mice. […]
# Measurement of mitochondrial membrane potential and Cytochrome C oxidase activity. Mitochondrial-enriched fractions were isolated from the lungs of mice and JC1 uptake measured using the MITOISO1 mitochondrial isolation kit (Sigma Aldrich). […]
# [2] = tested on: mice exposed to CS; assay: BAL leukocyte counts, BALF protein and IL-33/IL-6 ELISA in CS-induced pulmonary inflammation and injury; conditions: WT mice, 4 weeks CS then DFP during additional 2 or 4 weeks of CS, versus CS without DFP
# Description: (§2) In vivo CS exposures, chemical treatments and diet modifications. Age- and sex-matched mice, starting at 6-12 weeks of age, were selected at random and exposed to total body CS in a stainless steel chamber using a whole-body smoke exposure device (Model TE-10 Teague Enterprises) for 2 hours per day, 5 days per week for 4 weeks or 4-6 months. Age-matched male and female mice were used for all CS exposures. Mice were exposed to CS (mainstream and side stream smoke) from 100 3R4F cigarettes (University of Kentucky), which correlated to an average total particulate matter (TPM) of 150 mg/m^3. For animals subjected to cigarette smoke exposure, early death was used as an exclusion criterion. At the end of the exposure regimen, mice were euthanized by CO2 narcosis, the tracheas cannulated and the lungs inflated with PBS at 25 cm of H2O pressure. The left lung was tied off with a suture, dissected and flash frozen and the right lung fixed in 4% formalin at 4° C. overnight. A proximal portion of the left lung (4 month exposures only) was fixed for transmission electron microscopy (TEM) analysis.
# Mice exposed to CS for 4 weeks had modifications to their dietary iron as follows: Diet 1 (Control Diet) from Harlan Laboratories (TD.94045 AIN-93G), which contained 300-ppm iron. Diet 2 (iron deficient diet) from Harlan Laboratories (TD.10210), which contained 2-6 ppm iron. Diet 3 (iron replete Diet) from Harlan Laboratories (TD.10213), which contained 2% carbonyl iron. Iron diets were exchanged for normal diets upon weaning at 3 weeks of age and used throughout the smoke exposures. Animals were weighed weekly and the quantity of chow consumed was recorded compared to mice on a normal iron diet. Deferiprone or FERRIPROX® solution (1mg/m1) (ApoPharma Inc.) was administered prophylactically in the animals' drinking water for the duration of smoke exposure. Deferiprone was also administered therapeutically in the animals' drinking water initiating therapy after 4 weeks of smoke exposure and continuing therapy for an additional 2-4 weeks. Animals were checked daily and the quantity of water consumed compared to control mice. Water solutions were changed twice weekly.
# BALF isolation, cell counts and ELISA. Mice were euthanized by CO2 narcosis, the tracheas cannulated and the lungs lavaged with 0.5 ml increments of ice-cold PBS eight times (4 ml total). BALF was centrifuged at 500×g for 5 minutes. […] The cell pellet was resuspended in 500 μl PBS and leukocytes were counted using a hemocytometer. […] The percentage of macrophages, lymphocytes and polymorphonuclear leukocytes (PMNs) were counted in a total of 300 cells, and absolute numbers of each leukocyte subset were calculated. […]
# [3] = tested on: mice exposed to CS; assay: Weight gain of CS-exposed mice treated with DFP; conditions: WT mice, CS 6 or 8 weeks, DFP after 4 weeks of CS, versus CS without DFP; FIG. 6d
# Description: as §2, with “A proximal portion of the left lung (4 month exposures only) was fixed for transmission electron microscopy (TEM) analysis.” left out
# as §1
# [4] = tested on: mice exposed to CS; assay: CS-induced impairment of mucociliary clearance (MCC), CS-induced bronchitis model
# Description: as §2
# as §1, with “300-ppm iron. Diet 2 (iron deficient diet) from Harlan Laboratories (TD.10210), which contained 2-6 ppm” for “300-ppm”
# Assessment of Mucociliary Clearance. Mucociliary clearance was quantified using a non-invasive, oropharyngeal aspiration procedure (Lam et al., The Journal of clinical investigation 123(12), 5212-5230 (2013)). […] Whole mouse 3D μ- single-photon emission computed tomography (SPECT) images from 10 minute acquisitions at 0, 1, and 3 hour time points were obtained, reconstructed, blindly analyzed and expressed as the percent removed by mucociliary clearance. […]
smiles,measurement,setting,value
"Cc1c(O)c(=O)ccn1C [DFP, Deferiprone]",lung mitochondrial iron loading,[1],lower lung mitochondrial iron loading
same,BAL total leukocyte counts (pulmonary inflammation),[2]; FIG. 6f,significant reductions
same,total BALF protein (acute lung injury),[2]; FIG. 6g,significant reductions
same,BALF IL-6 protein concentration (pulmonary inflammation),[2]; FIG. 16e,significant reductions
same,BALF IL-33 protein concentration (pulmonary inflammation),[2]; FIG. 16d,significant reductions
same,weight gain,[3],improved weight gain
same,"CS-induced MCC impairment, DFP combined with IRP2 deficiency","[4]; DFP-treated Irp2-/- mice versus DFP or Irp2-/- alone, CS 1 month, FIG. 6c",better protection from CS-induced MCC impairment than DFP or Irp2−/− alone
same,CS-induced MCC impairment,"[4]; prophylactic: DFP in drinking water for the duration of CS-exposure (1 month), WT mice, FIG. 6c",protected mice from CS-induced MCC impairment
same,experimental COPD (overall),"[4]; summary statement, CS-exposed mice",alleviated experimental COPD
